Experimental data: patent US4010193A, “Basic ester” (Chinoin Gyogyszer-es Vegyeszeti Termekek Gyara RT, priority 1972, dated 1977)
Counter-ions that a name gives are not always drawn.

Experiments:
[1] = tested on: isolated ischiadicus nerves; experiment: Local anaesthetic effect on isolated ischiadicus nerves of frogs; details: for ED50 (dose reducing by 50% the amplitude of the action-potential): isolated ischiadicus nerves of frogs
Description: 4. Local anaesthetical effect The local anaesthetic effect being characteristic of the majority of antiarrhythmical agents is tested on isolated ischiadicus nerves of frogs. The dose reducing by 50% the amplitude of the action-potential induced by stimulation of the nerves is considered as the rate (ED50) of the local anaesthetic effect.

rats = experiment: Acute toxicity on rats; type: in vivo; details: own investigations
Description: (§1) Acute toxicity is measured on rats weighing 150-200 g. The test-compound is injected into the tail wein, within a period of not more, than 5 seconds in a volume of 0.2 ml/100 g. The LD50 -value and the confidentiality limits thereof are evaluated on the basis of the number of animals died within 24 hours. See (J. Pharmacol. Exper. Ther. 96, 89 (1948))

dogs [2] = experiment: Toxicity on dogs (own investigations); type: in vivo
dogs [3] = experiment: ECG (EKG) disturbances in dogs; type: in vivo; details: dose which exhibits a coronary dilatory effect
strophantine arrhythmia = experiment: Antagonism of strophantine arrhythmia on dogs; type: in vivo
Description: 1. Antagonism of strophantine arrhythmia on dogs
(§2) On dogs anaesthetized with Nembutal (25 mg/kg) (iv.) disturbance of the cardiac rhythm was produced by the slow intravenous infusion of 40 - 80 μg/kg of strophantine, the latter amount depending on the sensibility of the animals. After the appearance of cumulated ventricular extrasystolae the test-compounds are intravenously injected in increasing doses and the arrhythmia antagonizing effect is regarded as positive, if the rhythm disturbance reappears after the cessation of the drug effect. Atrial and ventricular antifibrillatory effect on cats

right atrium = experiment: Atrial antifibrillatory effect on cats (atrial fibrillation threshold); type: in vivo
Description: as §2
(§3) In cats anaesthetized with an urethane mixture (60/300 mg/kg i.p.) the right atrium and the right ventriculum is irritated through a dipolar silver electrode with 20 Hz rectangular electric stimuli of […]. The threshold intensity (i.e. fibrillation threshold value) just eliciting the fibrillation of the ventriculum is determined. The capacity of the compounds to elevate the fibrillation threshold when administered intravenously is tested. (British J. Pharmacol. 17, 167, 1961).

right ventriculum = experiment: Ventricular antifibrillatory effect on cats (ventricular fibrillation threshold); type: in vivo
Description: as §2, §3

isolated right atrium = experiment: Effect on spontaneous frequency of isolated right atria of rabbits
Description: (§4) 3. effect on the electro-physiological characteristics of isolated right and left atria of rabbits
(§5) Rabbits are killed by blows on the napeon; the isolated right atrium which is surviving in a Locke-solution having a temperature of 32° C the spontane frequency and on the isolated left atrium the electric threshold, the velocity of stimulus-transmission and the maximal driving frequency is determined. (Detailed description of the test: see L. Szekeres and Gy. Papp: "Experimental cardiac arrhythmias and antiarrhythmic drugs." Publishing House of the Hungarian Academy of Sciences, Budapest, 1971). Upon the effect of the rising concentrations of the various test compounds, the increase of the electric threshold indicates the reduction of myocardial stimulability and the decrease of the maximal driving frequency indicates the prolongation of the refractory period.

isolated left atrium = experiment: Effect on electro-physiological characteristics of isolated left atria of rabbits (electric threshold, velocity of stimulus-transmission, maximal driving frequency)
Description: as §4, §5

Acute toxicity on rats = type: in vivo; details: rat, in vivo, iv, tail vein injection, deaths within 24 hours, confidence 95 %
Description: as §1

Row | SMILES | Period of antagonising strophantine arrhythmia (strophantine arrhythmia; dose 2 mg/kg. i.v.) [s] | Atrial fibrillation threshold, changed value (right atrium; 2 mg/kg iv.) [mA] | Ventricular fibrillation threshold, changed value (right ventriculum; 2 mg/kg iv.) [mA] | Spontaneous frequency/min., changed value (isolated right atrium; 5 mg/l.) [min⁻¹] | Spontaneous frequency/min., changed value (isolated right atrium; 10 mg/l.) [min⁻¹] | Maximal driving frequency/min, changed value (isolated left atrium; 5 mg./l.) [min⁻¹] | Velocity of stimulus-transmission, changed value (isolated left atrium; 5 mg./l.) [m/sec] | Velocity of stimulus-transmission, deviation from basic value (isolated left atrium; 5 mg./l.) [%] | Electric stimulus threshold, changed value (isolated left atrium; 5 mg/l.) [mA] | Maximal driving frequency/min, changed value (isolated left atrium; 10 mg./l.) [min⁻¹] | Velocity of stimulus-transmission, changed value (isolated left atrium; 10 mg./l.) [m/sec] | Velocity of stimulus-transmission, deviation from basic value (isolated left atrium; 10 mg./l.) [%] | Electric stimulus threshold, changed value (isolated left atrium; 10 mg/l.) [mA] | ED50 (dose reducing by 50% the amplitude of the action-potential) [1] [µg/mL] | LD50 at 24 h (Acute toxicity on rats) [mg/kg] | Atrial fibrillation threshold, changed value (right atrium; 4 mg/kg iv.) [mA] | Atrial fibrillation threshold, changed value (right atrium; 6 mg/kg iv.) [mA] | Ventricular fibrillation threshold, changed value (right ventriculum; 4 mg/kg iv.) [mA] | Ventricular fibrillation threshold, changed value (right ventriculum; 6 mg/kg iv.) [mA] | other results
1 | COc1cc(C(=O)OCCCNCCC(c2ccccc2)c2ccccc2)cc(OC)c1OC.Cl [3-(3,3-diphenyl-propylamino)-propyl-3,4,5-trimethoxy-benzoate-hydrochloride, reference compound] | – | – | – | – | – | – | – | – | – | – | – | – | – | – | – | – | – | – | – | wash-out from isolated frog nerve ([1]; isolated frog nerve): cound not be washed out from isolated frog nerve; toxicity relative to the compounds of the Formula I, rats (rats): significantly more toxic than the compounds of the Formula I; toxicity relative to the compounds of the Formula I, dogs (dogs [2]): significantly more toxic than the compounds of the Formula I; ECG (EKG) disturbances (dogs [3]): often caused ECG (EKG) disturbances
2 | COc1cc(C(=O)OCCNC(C)c2ccccc2)cc(OC)c1OC (centres unmarked) [Compound 1, N-2-ethyl-1-phenyl-ethylamino-3,4,5,-trimethoxy-benzoate-hydrochloride] | 213 | 1.02 | 0.97 | 121 | 115 | 267 | 0.34 | -15 | 0.32 | 280 | 0.43 | -17 | 0.21 | 710 | 28 | – | – | – | – | Period of antagonising strophantine arrhythmia (strophantine arrhythmia; dose 4 mg/kg. i.v.): 260 s
3 | COc1cc(C(=O)OCCNC(C)C)cc(OC)c1OC [Compound 2] | 287 | 0.66 | 0.82 | 134 | 120 | 334 | 0.32 | -18 | 0.39 | 251 | 0.32 | -27 | 0.62 | 570 | 57 | 0.90 | 0.89 | 0.99 | 1.46 | Period of antagonising strophantine arrhythmia (strophantine arrhythmia; dose 0,5 mg/kg. i.v.): 145 s; Period of antagonising strophantine arrhythmia (strophantine arrhythmia; dose 1 mg/kg. i.v.): 228 s
4 | COc1cc(C(=O)OCCNC2CCCCC2)cc(OC)c1OC [Compound 3, N-2-ethyl-cyclohexylamino-3,4,5-trimethoxy-benzoate-hydrochloride] | – | 0.95 | 1.02 | 136 | 120 | 264 | 0.34 | -40 | 0.31 | 226 | 0.20 | -54 | 1.71 | 450 | 29 | 1.02 | 1.18 | 1.19 | 1.68 | Ventricular fibrillation threshold, deviation from basic value (right ventriculum; 6 mg/kg iv.): +121%; Spontaneous frequency/min., changed value (isolated right atrium; 1 mg/l.): 116 min⁻¹; Maximal driving frequency/min, changed value (isolated left atrium; 1 mg./l.): 352 min⁻¹; Velocity of stimulus-transmission, changed value (isolated left atrium; 1 mg./l.): 0.49 m/sec; Electric stimulus threshold, changed value (isolated left atrium; 1 mg/l.): 0.26 mA; Electric stimulus threshold, deviation from basic value (isolated left atrium; 10 mg/l., in %): +217 /3/
